Results as given in patent US9169260B2 (MERCK SHARP & DOHME CORP., priority 2011, dated 2015).

Molecular target: GST tagged IRAK-4 (Homo sapiens (Human), UniProt Q9NWZ3)
Assay: IRAK-4 Kinase Assay (IMAP fluorescence polarization)
Type: biochemical
Conditions: 100 μM ATP, 30 minutes at 25° C.
Procedure, shortened: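 Activity was read by IMAP fluorescence polarization, where phosphopeptide binding to M(III) nanoparticles raises FP. The 30-minute, 25° C reaction used 100 μM ATP, 100 nM RP7030 substrate and 0.5 nM GST-IRAK-4 in pH 7.2 Tris buffer with MgCl2, DTT and Tween 20.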

Chain of GST tagged IRAK-4 (Q9NWZ3 whole entry): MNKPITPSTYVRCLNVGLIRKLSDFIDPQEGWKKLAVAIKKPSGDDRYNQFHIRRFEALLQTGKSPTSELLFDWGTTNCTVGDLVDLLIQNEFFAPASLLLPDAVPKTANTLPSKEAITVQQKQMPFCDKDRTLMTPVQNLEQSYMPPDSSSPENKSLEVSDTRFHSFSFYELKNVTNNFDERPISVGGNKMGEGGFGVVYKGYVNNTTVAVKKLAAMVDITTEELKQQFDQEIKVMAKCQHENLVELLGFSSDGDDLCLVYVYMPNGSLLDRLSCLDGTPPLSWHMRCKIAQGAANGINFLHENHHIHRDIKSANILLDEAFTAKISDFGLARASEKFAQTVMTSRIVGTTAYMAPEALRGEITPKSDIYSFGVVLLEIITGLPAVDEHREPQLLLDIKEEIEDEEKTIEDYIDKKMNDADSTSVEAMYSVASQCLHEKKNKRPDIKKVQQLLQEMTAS

Structure (SMILES) | IC50 (μM) [µM] | IC50 [µM]
Cc1ccc(-n2nc(C3CCN(S(=O)(=O)c4ccc(Cl)cc4Cl)CC3)cc2NC(=O)c2cnn3cccnc23)cc1 [Example 391, N-[3-{1[(2,4-dichlorophenyl)sulfonyl]piperidin-4-yl}-1-(4-methylphenyl)-1H-pyrazol-5-yl]pyrazolo[1,5-a]pyrimidine-3-carboxamide] | > 1 | 
Cc1ccc(-n2nc(-c3ccc(=O)n(C)c3)cc2NC(=O)c2cnn3cccnc23)cc1 [Example 337, N-[3-(1-methyl-6-oxo-1,6-dihydropyridin-3-yl)-1-(4-methylphenyl)-1H-pyrazol-5-yl]pyrazolo[1,5-a]pyrimidine-3-carboxamide] | < 1 | 
O=C(Nc1cc(C2CCN(CC(F)(F)F)CC2)nn1-c1ccc(C2CC2)cc1F)c1cnn2cccnc12 [Example 76, N-(1-(4-cyclopropyl-2-fluorophenyl)-3-(1-(2,2,2-trifluoroethyl)piperidin-4-yl)-1H-pyrazol-5-yl)pyrazolo[1,5-a]pyrimidine-3-carboxamide] | < 1 | 
COc1cc(NC(=O)c2cnn3cccnc23)n(-c2ccc(C)cn2)n1 [Example 182, N-(3-methoxy-1-(5-methylpyridin-2-yl)-1H-pyrazol-5-yl)pyrazolo[1,5-a]pyrimidine-3-carboxamide] | < 1 | 
Cc1ccc(-n2nc(C3CN(Cc4cncnc4)C3)cc2NC(=O)c2cnn3cccnc23)cc1 [Example 310, N-{1-(4-methylphenyl)-3-[1-(pyrimidin-5-ylmethyl)azetidin-3-yl]-1H-pyrazol-5-yl}pyrazolo[1,5-a]pyrimidine-3-carboxamide] | < 1 | 
Cc1ccc(-n2nc(C3CCN(C4CCCC(C)C4)CC3)cc2NC(=O)c2cnn3cccnc23)nc1 (stereo not drawn) [Example 277, N-{3-[1-(3-methylcyclohexyl)piperidin-4-yl]-1-(5-methylpyridin-2-yl)-1H-pyrazol-5-yl}pyrazolo[1,5-a]pyrimidine-3-carboxamide] |  | < 0.1
Cc1ccc(-n2nc(C3CCN(S(C)(=O)=O)CC3)cc2NC(=O)c2cnn3cccnc23)nc1C [Example 174, N-(1-(5,6-dimethylpyridin-2-yl)-3-(1-(methylsulfonyl)piperidin-4-yl)-1H-pyrazol-5-yl)pyrazolo[1,5-a]pyrimidine-3-carboxamide] | < 1 | 
COc1ccc(-n2nc(C3CCNCC3)cc2NC(=O)c2cnn3cccnc23)c(F)c1 [Example 61, N-(1-(2-fluoro-4-methoxyphenyl)-3-(piperidin-4-yl)-1H-pyrazol-5-yl)pyrazolo[1,5-a]pyrimidine-3-carboxamide] |  | < 0.1
COc1ccc(-c2cc(NC(=O)c3cnn4cccnc34)n(-c3ccc(C)cc3)n2)cc1 [Example 131, N-(3-(4-methoxyphenyl)-1-(p-tolyl)-1H-pyrazol-5-yl)pyrazolo[1,5-a]pyrimidine-3-carboxamide] | < 1 | 
COc1ccc(-c2cc(NC(=O)c3cnn4cccnc34)n(-c3cccc(F)c3)n2)cc1 [Example 132, N-(1-(3-fluorophenyl)-3-(4-methoxyphenyl)-1H-pyrazol-5-yl)pyrazolo[1,5-a]pyrimidine-3-carboxamide] | < 1 | 
Cc1ccc(-n2nc(C3CCC(C(N)=O)CC3)cc2NC(=O)c2cnn3cccnc23)cc1 (stereo not drawn) [Example 95, N-(3-(4-carbamoylcyclohexyl)-1-(p-tolyl)-1H-pyrazol-5-yl)pyrazolo[1,5-a]pyrimidine-3-carboxamide] | < 1 | 
Cc1ccc(-n2nc(-c3cccc(NS(C)(=O)=O)c3)cc2NC(=O)c2cnn3cccnc23)cc1 [Example 346, N-[1-(4-methylphenyl)-3-{3-[(methylsulfonyl)amino]phenyl}-1H-pyrazol-5-yl]pyrazolo[1,5-a]pyrimidine-3-carboxamide] | < 1 | 
CCCC(C)N1CCC(c2cc(NC(=O)c3cnn4cccnc34)n(-c3ccc(C)cc3)n2)CC1 (stereo not drawn) [Example 210] |  | < 0.1

The next lines start with the values.

IC50 (μM) [µM] | IC50 [µM] | Structure (SMILES)
 | < 0.1 | CNS(=O)(=O)c1ccc(-c2cc(NC(=O)c3cnn4cc(Br)cnc34)n(-c3ccc(C)cn3)n2)cc1 [Example 194, 6-bromo-N-(1-(5-methylpyridin-2-yl)-3-(4-(N-methylsulfamoyl)phenyl)-1H-pyrazol-5-yl)pyrazolo[1,5-a]pyrimidine-3-carboxamide]
< 1 |  | O=C(Nc1cc(C2CCN(S(=O)(=O)C3CC3)CC2)nn1-c1ccc(F)cc1)c1cnn2cccnc12 [Example 22, N-(3-(1-(cyclopropylsulfonyl)piperidin-4-yl)-1-(4-fluorophenyl)-1H-pyrazol-5-yl)pyrazolo[1,5-a]pyrimidine-3-carboxamide]
< 1 |  | Cc1ccc(-n2nc(C3CCN(S(C)(=O)=O)CC3)cc2NC(=O)c2cnn3cc(C#N)cnc23)cc1 [Example 121, 6-cyano-N-(3-(1-(methylsulfonyl)piperidin-4-yl)-1-(p-tolyl)-1H-pyrazol-5-yl)pyrazolo[1,5-a]pyrimidine-3-carboxamide]
< 1 |  | CS(=O)(=O)N1CCC(c2cc(NC(=O)c3cnn4cccnc34)n(-c3ccc(Br)cc3F)n2)CC1 [Example 71, N-(1-(4-bromo-2-fluorophenyl)-3-(1-(methylsulfonyl)piperidin-4-yl)-1H-pyrazol-5-yl)pyrazolo[1,5-a]pyrimidine-3-carboxamide]
< 1 |  | CNC(=O)c1cccc(-c2cc(NC(=O)c3cnn4cccnc34)n(-c3ccc(C)cc3)n2)c1 [Example 350, N-{3-[3-(methylcarbamoyl)phenyl]-1-(4-methylphenyl)-1H-pyrazol-5-yl}pyrazolo[1,5-a]pyrimidine-3-carboxamide]
< 1 |  | Cc1ccc(-n2nc(C3CN(Cc4nccs4)C3)cc2NC(=O)c2cnn3cccnc23)cc1 [Example 307, N-{1-(4-methylphenyl)-3-[1-(1,3-thiazol-2-ylmethyl)azetidin-3-yl]-1H-pyrazol-5-yl}pyrazolo[1,5-a]pyrimidine-3-carboxamide]
 | < 0.1 | Cc1ccc(-n2nc(C3CCN(S(C)(=O)=O)CC3)cc2NC(=O)c2cnn3cccnc23)cc1 [Example 18, N-(3-(1-(methylsulfonyl)piperidin-4-yl)-1-(p-tolyl)-1H-pyrazol-5-yl)pyrazolo[1,5-a]pyrimidine-3-carboxamide]
< 1 |  | Cc1ccc(-n2nc(C3CCCN(CC4CC4)C3)cc2NC(=O)c2cnn3cccnc23)cc1 (stereo not drawn) [Example 297, N-{3-[1-(cyclopropylmethyl)piperidin-3-yl]-1-(4-methylphenyl)-1H-pyrazol-5-yl}pyrazolo[1,5-a]pyrimidine-3-carboxamide]
< 1 |  | Cc1ccc(-n2nc(C3CCN(S(=O)(=O)c4cccnc4Cl)CC3)cc2NC(=O)c2cnn3cccnc23)cc1 [Example 388, N-[3-{1-[(2-chloropyridin-3-yl)sulfonyl]piperidin-4-yl}-1-(4-methylphenyl)-1H-pyrazol-5-yl]pyrazolo[1,5-a]pyrimidine-3-carboxamide]
 | < 0.1 | Cc1ccc(-n2nc(C3CCN(Cc4ccsc4)CC3)cc2NC(=O)c2cnn3cccnc23)cc1 [Example 223, N-{1-(4-methylphenyl)-3-[1-(thiophen-3-ylmethyl)piperidin-4-yl]-1H-pyrazol-5-yl}pyrazolo[1,5-a]pyrimidine-3-carboxamide]
 | < 0.1 | Cc1ccc(-n2nc(C3CCNCC3)cc2NC(=O)c2cnn3cccnc23)nc1 [Example 152, N-(1-(5-methylpyridin-2-yl)-3-(piperidin-4-yl)-1H-pyrazol-5-yl)pyrazolo[1,5-a]pyrimidine-3-carboxamide]
